Literature values as cited in US6365131B1, “Pharmaceutical dental formulation for topical application of metronidazole benzoate, chlorhexidine gluconate and local anesthetic” (priority 1997, dated 2002).

SMILES | Time to peak effect (after the application to skin or mucosal surface) [min] | Onset of anesthesia (depending on the site of administration) | Duration of action (in words)
CCOC(=O)c1ccc(N)cc1 [Benzocaine, ethyl ester of p-Aminobenzoic acid] | ≤ 1 | – | –
CCN(CC)CC(=O)Nc1c(C)cccc1C [Lidocaine] | – | within a few minutes | intermediate duration of action
